The target in one experiment is GST tagged truncated human mutant G2019S LRRK2 (Homo sapiens (Human), UniProt Q5S007, G2019S). As to the kind of experiment: LRRK2 Km ATP LanthaScreen Assay. The following applies: G2019S LRRK2, 134 μM ATP (Km ATP), mean values. The format is biochemical. The essentials:
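Enzyme (GST-tagged, truncated) was preincubated with compound for 15 min at RT in 50 mM Tris pH 8.5, 10 mM MgCl2, 0.01% Brij-35, 1 mM EGTA, 2 mM DTT and 0.05 mM orthovanadate. Fluorescein-LRRKtide and 134 μM ATP (Km) were then added for 90 min. EDTA and Tb-anti-pERM antibody stopped the reaction; the TR-FRET 520/495 ratio gave 4-parameter IC50s, reported as mean pIC50.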
Sequence of GST tagged truncated human mutant G2019S LRRK2 (Q5S007 970-2527 G2019S): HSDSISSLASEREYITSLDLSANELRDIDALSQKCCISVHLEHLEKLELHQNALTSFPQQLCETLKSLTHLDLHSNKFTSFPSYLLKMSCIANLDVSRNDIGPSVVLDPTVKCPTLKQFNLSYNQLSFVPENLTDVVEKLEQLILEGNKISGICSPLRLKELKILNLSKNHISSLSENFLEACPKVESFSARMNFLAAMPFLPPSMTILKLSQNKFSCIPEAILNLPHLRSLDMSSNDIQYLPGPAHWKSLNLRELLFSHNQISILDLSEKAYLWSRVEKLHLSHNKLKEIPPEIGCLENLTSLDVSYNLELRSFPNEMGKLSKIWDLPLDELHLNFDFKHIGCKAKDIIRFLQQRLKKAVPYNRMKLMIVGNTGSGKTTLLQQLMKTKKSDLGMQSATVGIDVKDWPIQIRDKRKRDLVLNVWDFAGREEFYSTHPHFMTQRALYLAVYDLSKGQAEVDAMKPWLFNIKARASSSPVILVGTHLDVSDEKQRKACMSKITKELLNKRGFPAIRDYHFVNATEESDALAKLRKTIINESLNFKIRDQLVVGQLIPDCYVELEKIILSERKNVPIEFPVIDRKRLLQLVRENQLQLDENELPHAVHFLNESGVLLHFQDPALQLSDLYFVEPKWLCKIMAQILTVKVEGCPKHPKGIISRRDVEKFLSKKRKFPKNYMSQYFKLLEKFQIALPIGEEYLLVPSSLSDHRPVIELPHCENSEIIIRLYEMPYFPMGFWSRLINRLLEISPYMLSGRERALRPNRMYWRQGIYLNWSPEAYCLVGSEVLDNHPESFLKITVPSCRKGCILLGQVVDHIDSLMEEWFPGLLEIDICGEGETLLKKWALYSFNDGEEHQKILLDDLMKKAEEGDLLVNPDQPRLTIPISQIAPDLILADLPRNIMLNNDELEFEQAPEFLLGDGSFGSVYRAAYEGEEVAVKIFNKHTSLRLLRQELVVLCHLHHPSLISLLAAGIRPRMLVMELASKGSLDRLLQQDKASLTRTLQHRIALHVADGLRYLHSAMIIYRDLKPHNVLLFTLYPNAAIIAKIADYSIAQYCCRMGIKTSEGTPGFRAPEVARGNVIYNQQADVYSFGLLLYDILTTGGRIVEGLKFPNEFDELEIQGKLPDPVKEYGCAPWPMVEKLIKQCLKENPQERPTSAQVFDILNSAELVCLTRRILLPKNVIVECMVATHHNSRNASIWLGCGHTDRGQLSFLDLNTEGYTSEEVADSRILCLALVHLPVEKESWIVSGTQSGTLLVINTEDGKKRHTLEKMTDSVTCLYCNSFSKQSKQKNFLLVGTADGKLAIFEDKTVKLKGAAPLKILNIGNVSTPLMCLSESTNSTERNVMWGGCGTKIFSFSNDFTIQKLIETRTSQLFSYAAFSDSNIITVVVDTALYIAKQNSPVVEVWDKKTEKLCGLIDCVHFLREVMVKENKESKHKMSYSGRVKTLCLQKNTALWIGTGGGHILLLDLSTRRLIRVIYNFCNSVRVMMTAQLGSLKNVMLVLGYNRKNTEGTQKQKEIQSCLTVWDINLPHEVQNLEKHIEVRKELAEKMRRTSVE
Take `Cc1c(Nc2ncc3cc(Cl)c(C4CCN([C@@]5(C)COC[C@H]5O)CC4)cc3n2)cnn1C` (single isomer, unassigned) [Ex-2.65, (3S,4S) or (3R,4R) 4-(4-{6-chloro-2-[(1,5-dimethyl-1H-pyrazol-4-yl)amino]quinazolin-7-yl}piperidin-1-yl)-4-methyloxolan-3-ol]: the “LRRK2 pIC50” value stood at 7.84.

`Cn1ncc(Nc2ncc3cc(Cl)c(C4CCN([C@H]5COC[C@H]5O)CC4)cc3n2)c1Cl` (single isomer, unassigned) [Ex-2.66, (3S,4S) or (3R,4R) 4-(4-{6-chloro-2-[(5-chloro-1-methyl-1H-pyrazol-4-yl)amino]quinazolin-7-yl}piperidin-1-yl)oxolan-3-ol]: the “LRRK2 pIC50” value is listed as over 9.20.

For `Cc1c(Nc2ncc3cc(Cl)c(C4CCN([C@H]5COC[C@H]5O)CC4)cc3n2)cnn1C` (single isomer, unassigned) [Ex-2.67, (3S,4S) or (3R,4R) 4-(4-{6-chloro-2-[(1,5-dimethyl-1H-pyrazol-4-yl)amino]quinazolin-7-yl}piperidin-1-yl)oxolan-3-ol], the “LRRK2 pIC50” value is given as over 9.20.

Consider `Cc1cc(Nc2ncc3cc(Cl)c(C4CCN([C@H]5COC[C@H]5O)CC4)cc3n2)n(C)n1` (single isomer, unassigned) [Ex-2.68, (3S,4S) or (3R,4R) 4-(4-{6-chloro-2-[(1,3-dimethyl-1H-pyrazol-5-yl)amino]quinazolin-7-yl}piperidin-1-yl)oxolan-3-ol], for which the “LRRK2 pIC50” value is on record as over 9.20.

`[2H]C([2H])([2H])n1nc(C)cc1Nc1ncc2cc(Cl)c(C3CCN([C@H]4COC[C@H]4O)CC3)cc2n1` (single isomer, unassigned) [Ex-2.69, (3S,4S) or (3R,4R) 4-(4-(6-chloro-2-((3-methyl-1-(methyl-d3)-1H-pyrazol-5-yl)amino)quinazolin-7-yl)piperidin-1-yl)tetrahydrofuran-3-ol]: the “LRRK2 pIC50” value was 8.21.

Consider `[2H]C([2H])([2H])n1ncc(Nc2ncc3cc(Cl)c(C4CCN([C@H]5COC[C@H]5O)CC4)cc3n2)c1Cl` (single isomer, unassigned) [Ex-2.70, (3S,4S) or (3R,4R) 4-(4-(6-chloro-2-((5-chloro-1-(methyl-d3)-1H-pyrazol-4-yl)amino)quinazolin-7-yl)piperidin-1-yl)tetrahydrofuran-3-ol], for which the “LRRK2 pIC50” value was over 9.20.

Turning to `Cc1c(Nc2ncc3cc(Cl)c(C4CCN([C@@H]5COC[C@@H]5O)CC4)cc3n2)cnn1C(C)(C)C#N` (single isomer, unassigned) [Ex-2.74, (3S,4S) or (3R,4R) 2-[4-({6-chloro-7-[1-(4-hydroxyoxolan-3-yl)piperidin-4-yl]quinazolin-2-yl}amino)-5-methyl-1H-pyrazol-1-yl]-2-methylpropanenitrile], the “LRRK2 pIC50” value was over 9.20.

`Cc1cc(Nc2ncc3cc(Cl)c(C4CCN([C@@H]5COC[C@@H]5O)CC4)cc3n2)n(C2CC2)n1` (single isomer, unassigned) [Ex-2.75, (3S,4S) or (3R,4R)4-(4-{6-chloro-2-[(1-cyclopropyl-3-methyl-1H-pyrazol-5-yl)amino]quinazolin-7-yl}piperidin-1-yl)oxolan-3-ol]: the “LRRK2 pIC50” value turned out to be 8.63.

Regarding `Cn1ncc(Nc2ncc3cc(Cl)c(C4CCN([C@]5(C)COC[C@@H]5O)CC4)cc3n2)c1Cl` (single isomer, unassigned) [Ex-2.76, (3S,4S) or (3R,4R) 4-(4-(6-chloro-2-((5-chloro-1-methyl-1H-pyrazol-4-yl)amino)quinazolin-7-yl)piperidin-1-yl)-4-methyltetrahydrofuran-3-ol], the “LRRK2 pIC50” value is listed as 7.76.

In the case of `Cc1c(Nc2ncc3cc(Cl)c(C4CCN([C@]5(C)COC[C@@H]5O)CC4)cc3n2)cnn1C` (single isomer, unassigned) [Ex-2.77, (3S,4S) or (3R,4R) 4-(4-{6-chloro-2-[(1,5-dimethyl-1H-pyrazol-4-yl)amino]quinazolin-7-yl}piperidin-1-yl)-4-methyloxolan-3-ol], the “LRRK2 pIC50” value is recorded as 8.01.

For `Cc1cc2cnc(Nc3cnn(C)c3Cl)nc2cc1C1CCN([C@@H]2COC[C@@H]2O)CC1` (single isomer, unassigned) [Ex-2.78, (3S,4S) or (3R,4R) 4-(4-{2-[(5-chloro-1-methyl-1H-pyrazol-4-yl)amino]-6-methylquinazolin-7-yl}piperidin-1-yl)oxolan-3-ol], the “LRRK2 pIC50” value was over 9.20.

`Cc1cc2cnc(Nc3cnn(C)c3C)nc2cc1C1CCN([C@@H]2COC[C@@H]2O)CC1` (single isomer, unassigned) [Ex-2.79, (3S,4S) or (3R,4R) 4-(4-{2-[(1,5-dimethyl-1H-pyrazol-4-yl)amino]-6-methylquinazolin-7-yl}piperidin-1-yl)oxolan-3-ol]: the “LRRK2 pIC50” value is over 9.20.

`Cc1cc2cnc(Nc3cnn(C)c3Cl)nc2cc1C1CCN([C@]2(C)COC[C@@H]2O)CC1` (single isomer, unassigned) [Ex-2.80, (3S,4S) or (3R,4R) 4-(4-{2-[(5-chloro-1-methyl-1H-pyrazol-4-yl)amino]-6-methylquinazolin-7-yl}piperidin-1-yl)-4-methyloxolan-3-ol]: the “LRRK2 pIC50” value came to 7.14.

For `Cc1cc2cnc(Nc3cnn(C)c3C)nc2cc1C1CCN([C@]2(C)COC[C@@H]2O)CC1` (single isomer, unassigned) [Ex-2.81, (3S,4S) or (3R,4R) 4-(4-{2-[(1,5-dimethyl-1H-pyrazol-4-yl)amino]-6-methylquinazolin-7-yl}piperidin-1-yl)-4-methyloxolan-3-ol], the “LRRK2 pIC50” value came out at 7.35.

In the case of `Cn1ncc(Nc2ncc3cc(Cl)c(C4CCN([C@]5(C)COC[C@@H]5O)CC4)cc3n2)c1C(F)F` (single isomer, unassigned) [Ex-2.82, (3S,4S) or (3R,4R) 4-[4-(6-chloro-2-{[5-(difluoromethyl)-1-methyl-1H-pyrazol-4-yl]amino}quinazolin-7-yl)piperidin-1-yl]-4-methyloxolan-3-ol], the “LRRK2 pIC50” value is listed as over 9.20.

In the case of `Cn1nc(C(C)(C)C)cc1Nc1ncc2cc(Cl)c(C3CCN([C@]4(C)COC[C@@H]4O)CC3)cc2n1` (single isomer, unassigned) [Ex-2.83, (3S,4S) or (3R,4R) 4-(4-{2-[(3-tert-butyl-1-methyl-1H-pyrazol-5-yl)amino]-6-chloroquinazolin-7-yl}piperidin-1-yl)-4-methyloxolan-3-ol], the “LRRK2 pIC50” value was found to be 8.71.

As to `C[C@@]1(N2CCC(c3cc4nc(Nc5ccnn5C5CC5(F)F)ncc4cc3Cl)CC2)COC[C@@H]1O` (single isomer, unassigned) [Ex-2.84, (S)(3S,4S) or (S)(3R,4R) or (R)(3S,4S) or (R)(3R,4R) 4-[4-(6-chloro-2-{[1-(2,2-difluorocyclopropyl)-1H-pyrazol-5-yl]amino}quinazolin-7-yl)piperidin-1-yl]-4-methyloxolan-3-ol], the “LRRK2 pIC50” value was 8.80.

The same experiment, now with this note: G2019S LRRK2, 134 μM ATP (Km ATP), mean values; read-out: LRRK2 pIC50 (converted).
Regarding `Cc1c(Nc2ncc3cc(Cl)c(C4CCN(C5COC5)CC4)cc3n2)cnn1C1CC1(F)F` (single isomer, unassigned) [Ex-2.73, (S) or (R) 6-chloro-N-[1-(2,2-difluorocyclopropyl)-5-methyl-1H-pyrazol-4-yl]-7-[1-(oxetan-3-yl)piperidin-4-yl]quinazolin-2-amine], the IC50 was 0.955 nM.
